From patent US10364263B2, “Cyclic phosphates and cyclic phosphoramidates for the treatment of neurologic disorders” (Retrophin, Inc., priority 2015, dated 2019) come the findings set out here.

Where two headings read alike, the source gives them in different places. A value given as a limit tells only on which side of the number the result lay.

The nature of data set [1]: Permeability in porcine brain endothelial cell blood-brain barrier model. The format is in vitro ADME. The settings on record: pig (endothelial cells), co-cultured with rat astrocytes, pH 7.4, PBECs/As blood-brain barrier model, luminal to basal. From the text: Compounds disclosed herein show the potential to reach mammalian brain by crossing the blood-brain barrier (BBB) from systemic circulation. […] The porcine brain endothelial cell permeability assay is an in vitro BBB model to be used for the prediction of central nervous system (CNS) drug permeability in vivo and for ranking or prioritization of compounds according to their permeability. This system can also be used for mechanistic studies and drug delivery strategies via receptor-mediated transport (transcytosis). The system is a two-dimensional co-culture, non-contact model of two types of primary cells: primary brain endothelial cells obtained from fresh porcine brains, and primary rat astrocytes, obtained from neonatal rats. This ensures barrier formation and functional expression of key transporters.
The endothelial cells were cultured on rat-tail collagen type I and human fibronectin coated Transwell polycarbonate inserts (surface area 0.7 cm^2; pore size 0.4 μm) and the inserts were placed in 24-well plates containing confluent rat astrocytes. This system allows for the formation of a differentiated BBB model suitable for compound permeability in 10 days.
On the day of the experiment, culture medium was removed and cells were pre-incubated for 30 min with HBSS containing 20 mM Hepes pH 7.4 and 0.1% BSA. Donor volume (apical) was 400 μl and receiver volume (basal) 900 μl. Compounds were diluted in assay medium (at the desired concentration) and added to the luminal side (to mimic blood to brain passage). Transport was measured usually after 60 min by detecting the amount of compound from the basal (brain side). The integrity of the cell layers was assessed by measuring the transendothelial electrical resistance (TEER) and by monitoring FITC-dextran (40 KDa) permeation. Inserts with TEER values […] were selected for permeability studies. As FITC-dextran cannot freely permeate lipophilic barriers, a high degree of FITC-dextran transport indicates poor integrity of the cell layer and wells with high FITC-dextran permeability were excluded. FITC-dextran was included as internal control in each insert used for permeability studies. Fluorescence was measured using a fluorimetric detector. Radioactivity was measured by scintillation counting. For LC-MS/MS analysis, aliquots (200 μl) from the basal compartment were diluted with an equal volume of 100% acetonitrile containing 0.1% formic acid, centrifuged to remove cell debris, and evaporated under N2. After reconstitution, samples were analyzed by LC-MS/MS. Mass balance was determined considering the amount of compound recovered in the donor and receiver chamber at the end of the assay relative to the amount added to the donor chamber at time 0.
Permeability was defined as the apparent permeability coefficient (Papp), which is a measure of the appearance rate of the compound in the receiver chamber, expressed in cm/s. Papp is calculated according the following equation: Papp[cm/sec]=Vd*ΔMr/A*Md*Δt, Equation 2: where
Vd=volume in the donor compartment in cm^3 or mL;
ΔMr=total amount of compound in the receiver compartment after t seconds;
Md=donor amount (added at time 0)
Δt=time measured in seconds
A=filter area in cm^2 (for 24 well plate, A=0.7 cm^2).
To correct for the contribution of filter and substrate, Papp was also determined for the cell-free system. Permeability of the endothelial cell layer was determined using the following equation: […], Equation 3: where
Ptotal=the P of the total system,
Pf=P for the cell-free filter, and
Pe=P for the endothelial cell layer alone. In this equation, the total resistance of the system towards passage of a substance is additively composed of two […] resistances: that of the cell monolayer and that of the filter.

For data set [2], the system named is PANK2 silenced human neuroblastoma IMR32 cells (PANK2−/−). The experiment in a line: Coenzyme A assay in PANK2 silenced cells (LC-MS quantification of free CoA). The format is cell-based. The settings on record: compound added twice (24 h + 24 h), relative to 0.1% DMSO controls. In outline:
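Free intracellular CoA was measured by positive-mode LC-MS/MS of 20% TFA extracts, taking 2 μl per 10^6 cells as intracellular volume. Cells were IMR32 with stable lentiviral PANK2 knockdown, dosed twice 24 h apart (48 h total, 0.1% DMSO). Output is fold increase over vehicle.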

Data set [3] is described as follows: Stability in human hepatocytes. Format: in vitro ADME. Particulars: for half-life at 5 µM: t1/2, Human Hepatocytes.
Data set [4] can be described thus: Stability in mouse hepatocytes. Format: in vitro ADME.
The nature of data set [5]: Chemical stability in aqueous solution (phosphate buffered saline, NMR).
Procedure: To measure chemical stability in aqueous solution, the half-life (t1/2), or time needed for the concentration to decrease by half, was determined for select compounds in phosphate buffered saline solution. Compounds were dissolved in a solution containing 10 mM phosphate buffer (pH 7.5) and 5% of D2O to a final concentration of −1 mM. All spectra were obtained at 37° C. on a Bruker Avance 600 NMR spectrometer equipped with an inverse broad-band probe with z-gradients. Data were obtained every 15 min for a total time period of 4 h or longer, according to the observed stability. ^31P NMR was performed at 242.55 MHz, with gated decoupling of the protons. An observation frequency range of 14619.9 Hz and 32 K complex data points were used for acquisition. A pulse angle of 90° and a 4-sec pulse cycle were utilized. Thirty-two accumulations were obtained before Fourier transformation of the free induction decay. ^1H NMR spectra were acquired using the 1DNOESY experiment with water presaturation for better solvent suppression. An observation frequency range of 12019.23 Hz, a 10-sec pulse cycle, and 32 K complex data points were used for acquisition. Sixty-four scans were added prior to Fourier transformation. Integral data were obtained using the TopSpin software.
Stability was determined based on analysis of disappearance of the compounds as a function of incubation time. Quantification of test compounds was measured as a peak area relative to an internal standard. The elimination constant, k, was calculated by plotting mean disappearance values on a semi-logarithmic scale and fitting with a best fit linear regression. The half-life (t1/2) expressed in hours was derived using Equation 1: t1/2=ln2/(−k). Equation 1:
Data set [6] in a line: Stability in mouse plasma. The format is in vitro ADME. Particulars: mouse, plasma. In outline: (§1)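 Test compound at 3 μM (0.1% DMSO) was incubated in mouse or human plasma at 37 °C and sampled in duplicate at 0, 10, 20, 30, 40 and 60 min. Reactions were stopped with acetonitrile/formic acid containing internal standard. Remaining parent was measured by UPLC-MS/MS without a calibration curve.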

A short description of data set [7]: Stability in human plasma. The format is in vitro ADME. Particulars: human, plasma, 37° C. In outline:
as §1

Setting [8] is: Diastereoisomer A, read-out: Papp Diastereoisomer A.
Where [9] appears, read: t1/2, Mouse Hepatocytes, Diastereoisomer A.
[10] abbreviates: pH 7.5, t1/2 (h) Diastereoisomer A, 10 mM phosphate buffer pH 7.5, 37° C., Diastereoisomer A = upfield shift in the 31P NMR.
[11] abbreviates: pH 7.5, t1/2 (h) Diastereoisomer B, 10 mM phosphate buffer pH 7.5, 37° C., Diastereoisomer B.
[12] abbreviates: t1/2, Mouse Hepatocytes, Diastereoisomer B.

For `CC(C)OC(=O)OCO[P@@]1(=O)OCC(C)(C)[C@H](C(=O)NCCC(=O)O)O1` [2-130, 3-((2S,4R)-2-(((isopropoxycarbonyl)oxy)methoxy)-5,5-dimethyl-2-oxido-1,3,2-dioxaphosphinane-4-carboxamido)propanoic acid], the Papp A→B at 60 min in data set [1] (setting [8]) worked out at 1.84 ×10⁻⁶ cm/s. Further, the “PANK2−/− CoA (Fold Increase): fold increase in Coenzyme A (CoA) levels relative to controls” value in data set [2] worked out at 43.5 Fold Increase.

For `COC(=O)CCNC(=O)[C@@H]1O[P@@](=O)(OCN2C(=O)c3ccccc3S2(=O)=O)OCC1(C)C` (single isomer, unassigned) [Compound No. 2-126], the Papp A→B at 60 min in data set [1] (setting [8]) is 2.74 ×10⁻⁶ cm/s. Moreover, in data set [2], the “PANK2−/− CoA (Fold Increase): fold increase in Coenzyme A (CoA) levels relative to controls” value is given as 138.56 Fold Increase.

`COC(=O)CCNC(=O)[C@@H]1O[P@](=O)(OCc2ccccc2)OCC1(C)C` [compound 54, methyl 3-((2R,4R)-2-(benzyloxy)-5,5-dimethyl-2-oxido-1,3,2-dioxaphosphinane-4-carboxamido)propanoate]: the Papp A→B at 60 min in data set [1] (setting [8]) was 18.1 ×10⁻⁶ cm/s. Also, the half-life at 5 µM in data set [3] (Diastereoisomer A) and in data set [4] (setting [9]) was less than 0.25 h each time.

As for `CCc1cc(C(=O)OCO[P@@]2(=O)OCC(C)(C)[C@H](C(=O)NCCC(=O)OC)O2)n(C)n1` (single isomer, unassigned) [Compound No. 2-127], the Papp A→B at 60 min in data set [1] (setting [8]) came to 11.8 ×10⁻⁶ cm/s. The half-life at 5 µM in data set [3] (Diastereoisomer A) was 0.29 h; in data set [4] (setting [9]), less than 0.25 h. Also, the “PANK2−/− CoA (Fold Increase): fold increase in Coenzyme A (CoA) levels relative to controls” value in data set [2] was determined as 14.41 Fold Increase.

As for `COC(=O)CCNC(=O)[C@@H]1OP(=O)(NCCc2ccncc2)OCC1(C)C` (stereo partly drawn) [compound 111, methyl 3-((4R)-5,5-dimethyl-2-oxido-2-((2-(pyridin-4-yl)ethyl)amino)-1,3,2-dioxaphosphinane-4-carboxamido)propanoate], the Papp A→B at 60 min in data set [1] (setting [8]) stood at 0.7 ×10⁻⁶ cm/s. Besides, the half-life in data set [3] (Diastereoisomer A (upfield shift in 31P NMR), 5 μM, 1 million cells/ml, 37° C., human hepatocytes, read-out: t1/2, Human Hepatocytes, Diastereoisomer A (converted)) was 2.85 h. Further, in data set [4] (Diastereoisomer A (upfield shift in 31P NMR), 5 μM, 1 million cells/ml, 37° C., mouse hepatocytes, read-out: t1/2, Mouse Hepatocytes, Diastereoisomer A (converted)), the half-life at 5 µM is 0.48 h.

For the molecule `COC(=O)CCNC(=O)[C@@H]1OP(=O)(O)OCC1(C)C` [compound 55, methyl 3-((4R)-2-hydroxy-5,5-dimethyl-2-oxido-1,3,2-dioxaphosphinane-4-carboxamido)propanoate], in data set [5] (pH 7.5, t1/2 (h), pH 7.5, 37° C., compound not chiral at phosphorous, one value spanning both columns), the half-life at 1 mM is greater than 60 h. For the same molecule, the “PANK2−/− CoA (Fold Increase): fold increase in Coenzyme A (CoA) levels relative to controls” value in data set [2] amounted to 1.92 Fold Increase.

On to `COC(=O)CCNC(=O)[C@@H]1OP(=O)(OCCCN2CCOCC2)OCC1(C)C` (stereo partly drawn) [compound 52, methyl 3-((4R)-5,5-dimethyl-2-(3-morpholinopropoxy)-2-oxido-1,3,2-dioxaphosphinane-4-carboxamido)propanoate], for which the half-life at 3 µM was less than 9.6 min in data set [6]; greater than 1 h in data set [7] (Diastereoisomer A (upfield shift in 31P NMR), read-out: t1/2, Human Plasma, Diastereoisomer A (converted)); greater than 1 h in data set [7] (Diastereoisomer B, read-out: t1/2, Human Plasma, Diastereoisomer B (converted)). Moreover, the “t1/2, Mouse Plasma, Diastereoisomer B” value in data set [6] (3 µM) was less than 9.6 min. The half-life at 1 mM in data set [5] (setting [10]) was 23.5 h; in data set [5] (setting [11]) it was 5.1 h. In data set [2], the “PANK2−/− CoA (Fold Increase): fold increase in Coenzyme A (CoA) levels relative to controls” value is listed as 1.58 Fold Increase.

On to `COC(=O)CCNC(=O)[C@@H]1OP(=O)(OCCCOCc2ccccc2)OCC1(C)C` (stereo partly drawn) [compound 53, methyl 3-((4R)-2-(3-(benzyloxy)propoxy)-5,5-dimethyl-2-oxido-1,3,2-dioxaphosphinane-4-carboxamido)propanoate], for which the half-life at 5 µM in data set [3] (Diastereoisomer A) was 0.57 h; in data set [3] (Diastereoisomer B), less than 0.25 h; in data set [4] (setting [9]), 0.28 h; in data set [4] (setting [12]), less than 0.25 h. For the same molecule, the half-life at 1 mM in data set [5] (setting [10]) and in data set [5] (setting [11]) was greater than 80 h each time.

Turning to `CCc1cc(C(=O)OCO[P@]2(=O)OCC(C)(C)[C@H](C(=O)NCCC(=O)OC)O2)n(C)n1` (single isomer, unassigned) [Compound No. 2-129], in data set [1] (Diastereoisomer B, read-out: Papp Diastereoisomer B), the Papp A→B at 60 min was 11.5 ×10⁻⁶ cm/s. Further, the half-life at 5 µM in data set [3] (Diastereoisomer B) and in data set [4] (setting [12]) was less than 0.25 h throughout. For the same molecule, the “PANK2−/− CoA (Fold Increase): fold increase in Coenzyme A (CoA) levels relative to controls” value in data set [2] was 88.66 Fold Increase.

As for `COC(=O)CCNC(=O)[C@@H]1O[P@@](OCCc2ccccc2)OCC1(C)C` [compound 58, methyl 3-((2S,4R)-5,5-dimethyl-2-phenethoxy-1,3,2-dioxaphosphinane-4-carboxamido)propanoate], the half-life at 1 mM in data set [5] (pH 7.5) was greater than 80 h.

Regarding `COC(=O)CCNC(=O)[C@@H]1O[P@@](=O)(OCCC(C)C)OCC1(C)C` [compound 50, methyl 3-((2S,4R)-2-(isopentyloxy)-5,5-dimethyl-2-oxido-1,3,2-dioxaphosphinane-4-carboxamido)propanoate], in data set [5] (setting [10]), the half-life at 1 mM was greater than 80 h.

Take `COC(=O)CCNC(=O)[C@H](O)C(C)(C)COP1(=O)OCC(C)(C)[C@H](C(=O)NCCC(=O)OC)O1` (stereo partly drawn) [compound 59, methyl 3-((2R)-2-hydroxy-4-(((4R)-4-((3-methoxy-3-oxopropyl)carbamoyl)-5,5-dimethyl-2-oxido-1,3,2-dioxaphosphuian-2-yl)oxy)-3,3-dimethylbutanamido) propanoate]: the half-life at 5 µM is 2.89 h in data set [3] (Diastereoisomer A), 1.54 h in data set [3] (Diastereoisomer B), 0.34 h in data set [4] (setting [9]) and less than 0.25 h in data set [4] (setting [12]). Moreover, the half-life at 1 mM in data set [5] (setting [10]) was 80 h; in data set [5] (setting [11]), 6 h. Besides, the “PANK2−/− CoA (Fold Increase): fold increase in Coenzyme A (CoA) levels relative to controls” value in data set [2] came to 1.52 Fold Increase.

Take `COC(=O)CCNC(=O)[C@@H]1O[P@@](=O)(OCC(F)(F)F)OCC1(C)C` [2-138, methyl 3-((2R,4R)-5,5-dimethyl-2-oxido-2-(2,2,2-trifluoroethoxy)-1,3,2-dioxaphosphinane-4-carboxamido)propanoate]: the Papp A→B at 60 min in data set [1] (setting [8]) was found to be 15.6 ×10⁻⁶ cm/s. The molecule also yielded a half-life at 5 µM in data set [3] (Diastereoisomer A) greater than 4 h. For the same molecule, the “PANK2−/− CoA (Fold Increase): fold increase in Coenzyme A (CoA) levels relative to controls” value in data set [2] came to 1.13 Fold Increase.
